In brackets after ≈: the same amount, converted by molar mass.
Tests used:
S. epidermidis MRSE = assay: Minimum inhibitory concentration (MIC) in vitro, agar dilution method; format: cell-based
Text: (§1) Hydrates Samples: • The 1/2 hydrates prepared according to Example 2; • Content (purity % wt): 99.0%; • The 1/12 hydrates prepared according to Example 253; • Content (purity % wt): 98.9%; • The 2/7 hydrates prepared according to Example 106; • Content (purity % wt): 98.8%; • The 2/5 hydrates prepared according to Example 162; • Content (purity % wt): 99.0%; • The 3/4 hydrates prepared according to Example 337; • Content (purity % wt): 98.8%; • Preparation: dissolved in DMSO, and further diluted with sterile distilled water to desired concentration. • The hydrates samples were supplied by Sichuan Beilike Biotechnology LTD.
(§2) Anhydrous Sample: • The anhydrous compounds prepared according to Example 1. • Content (purity % wt): 98.6%; • Preparation: dissolved in DMSO, and further diluted with sterile distilled water to desired concentration; • The anhydrous sample was supplied by Sichuan Beilike Biotechnology LTD.
(§3) Control Samples • Vancomycin: provided by Sichuan Beilike Biotechnology LTD, purchased from Eli Lilly Japan K.K. • Lot No.: WM16151 (production date: Apr. 10, 2007, expiration date: Apr. 9, 2009). • Specification: 500 mg/bottle; solubility (physicochemical properties): soluble in water. • Linezolid (LZ): provided by Sichuan Beilike Biotechnology LTD.
(§4) Bacteria Strains • Clinically isolated strains: clinically isolated bacterial pathogens collected in Sichuan and Beijing areas from March 2007 to May 2008. • Species include: Staphylococcus aureus MRSA, Staphylococcus aureus MSSA, S. epidermidis MRSE, S. epidermidis MSSE, E. feacalis, and E. feacium, a total of 51 strains. • Quality control strains: Staphylococcus aureus […] strain kept in Sichuan Industrial Institute of Antibiotics, purchased from the medical testing center of the Ministry of Health, China.
(§5) Experimental Method: • Measurement of the minimum inhibitory concentration (MIC) in vitro: • The minimum inhibitory concentration (MIC) of each test sample against test strains was measured by using the agar dilution method recommended by the U.S. National Committee for Clinical Laboratory Standards (CLSI/NCCIs).
(§6) Based on the CLSI/NCCL's testing standard with respect to vancomycin and linezolid (see Table 6), the minimum inhibitory concentration (MIC) values of every strain were reported, and the MIC50 (the concentration that inhibits 50% of the different strains of bacteria), MIC90 (the concentration that inhibits 90% of the different strains of bacteria), and MICrange (the range of the MIC value of the tested strains) were observed.

E. feacium = assay: as above; format: cell-based
Text: as §1, §2, §3, §4, §5, §6

[1] = system: Staphylococcus aureus MSSA; assay: as above; format: cell-based; settings: S. MSSA (11 strains), clinically isolated
Text: as §1, §2, §3, §4, §5, §6

E. feacalis = assay: as above; format: cell-based
Text: as §1, §2, §3, §4, §5, §6

[2] = system: Staphylococcus aureus MRSA; assay: as above; format: cell-based; settings: S. MRSA (10 strains), clinically isolated
Text: as §1, §2, §3, §4, §5, §6

S. epidermidis MSSE = assay: as above; format: cell-based
Text: as §1, §2, §3, §4, §5, §6

[3] = Solubility in different solvents according to Chinese Pharmacopeia (2005 edition); format: physicochemical; settings: at the given solute:solvent ratio
Experimental: The solubility of the (S)—[N-3-(3′-fluoro-4′-(4″-phenylpiperazinyl))phenyl-2-oxo-5-oxazolelidinyl]methylacetamide hydrates was tested with different solvents, and the test results are shown in Tables 15-19. The solubility was measured according to Chinese Pharmacopeia (2005 edition).

[4] = S. ep MRSE (10 strains), clinically isolated
[5] = E. feacium (5 strains), clinically isolated
[6] = E. feacalis (5 strains), clinically isolated
[7] = S. ep MSSE (10 strains), clinically isolated

CC(=O)NC[C@H]1CN(c2ccc(N3CCN(c4ccccc4)CC3)c(F)c2)C(=O)O1 [Anhydrous compound]
MIC50 (S. epidermidis MRSE; [4]): 2 µg/mL (≈ 4.85 µM) | MIC90 (S. epidermidis MRSE; [4]): 2 µg/mL (≈ 4.85 µM) | MICrange (S. epidermidis MRSE; [4]): 2 µg/mL | MIC (S. epidermidis MRSE; strain S. ep MRSE4 (Table 8 No. 9)): 2 µg/mL (≈ 4.85 µM) | MIC (S. epidermidis MRSE; strain S. ep MRSE20 (Table 8 No. 6)): 2 µg/mL (≈ 4.85 µM) | MIC (S. epidermidis MRSE; strain S. ep MRSE87 (Table 8 No. 13)): 2 µg/mL (≈ 4.85 µM) | MIC (S. epidermidis MRSE; strain S. ep MRSE90 (Table 8 No. 10)): 2 µg/mL (≈ 4.85 µM) | MIC (S. epidermidis MRSE; strain S. ep MRSE101 (Table 8 No. 7)): 2 µg/mL (≈ 4.85 µM) | MIC (S. epidermidis MRSE; strain S. ep MRSE105 (Table 8 No. 11)): 2 µg/mL (≈ 4.85 µM) | MIC (S. epidermidis MRSE; strain S. ep MRSE140 (Table 8 No. 14)): 2 µg/mL (≈ 4.85 µM) | MIC (S. epidermidis MRSE; strain S. ep MRSE142 (Table 8 No. 12)): 2 µg/mL (≈ 4.85 µM) | MIC (S. epidermidis MRSE; strain S. ep MRSE210 (Table 8 No. 15)): 2 µg/mL (≈ 4.85 µM) | MIC (S. epidermidis MRSE; strain S. ep MRSE211 (Table 8 No. 8)): 2 µg/mL (≈ 4.85 µM) | MIC50 (E. feacium; [5]): 4 µg/mL (≈ 9.7 µM) | MIC90 (E. feacium; [5]): 8 µg/mL (≈ 19.4 µM) | MICrange (E. feacium; [5]): 2 to 8 µg/mL | MIC (E. feacium; strain Efm 98 (Table 8 No. 21)): 4 µg/mL (≈ 9.7 µM) | MIC (E. feacium; strain Efm 171 (Table 8 No. 25)): 4 µg/mL (≈ 9.7 µM) | MIC (E. feacium; strain Efm 197 (Table 8 No. 22)): 2 µg/mL (≈ 4.85 µM) | MIC (E. feacium; strain Efm N3 (Table 8 No. 23)): 8 µg/mL (≈ 19.4 µM) | MIC (E. feacium; strain Efm N4 (Table 8 No. 24)): 8 µg/mL (≈ 19.4 µM) | MIC50 [1]: 2 µg/mL (≈ 4.85 µM) | MIC90 [1]: 2 µg/mL (≈ 4.85 µM) | MICrange [1]: 1 to 2 µg/mL | MIC50 (E. feacalis; [6]): 4 µg/mL (≈ 9.7 µM) | MIC90 (E. feacalis; [6]): 8 µg/mL (≈ 19.4 µM) | MICrange (E. feacalis; [6]): 2 to 8 µg/mL | MIC (E. feacalis; strain Efa 54 (Table 8 No. 20)): 4 µg/mL (≈ 9.7 µM) | MIC (E. feacalis; strain Efa 116 (Table 8 No. 16)): 4 µg/mL (≈ 9.7 µM) | MIC (E. feacalis; strain Efa 907 (Table 8 No. 19)): 2 µg/mL (≈ 4.85 µM) | MIC (E. feacalis; strain Efa 3006 (Table 8 No. 18)): 4 µg/mL (≈ 9.7 µM) | MIC (E. feacalis; strain Efa 33748 (Table 8 No. 17)): 8 µg/mL (≈ 19.4 µM) | MIC50 [2]: 2 µg/mL (≈ 4.85 µM) | MIC90 [2]: 2 µg/mL (≈ 4.85 µM) | MICrange [2]: 1 to 2 µg/mL | MIC50 (S. epidermidis MSSE; [7]): 1 µg/mL (≈ 2.42 µM) | MIC90 (S. epidermidis MSSE; [7]): 2 µg/mL (≈ 4.85 µM) | MICrange (S. epidermidis MSSE; [7]): 1 to 2 µg/mL | MIC (S. epidermidis MSSE; strain S. ep MSSE88 (Table 8 No. 5)): 2 µg/mL (≈ 4.85 µM) | MIC (S. epidermidis MSSE; strain S. ep MSSE118 (Table 8 No. 2)): 1 µg/mL (≈ 2.42 µM) | MIC (S. epidermidis MSSE; strain S. ep MSSE137 (Table 8 No. 4)): 2 µg/mL (≈ 4.85 µM) | MIC (S. epidermidis MSSE; strain S. ep MSSE140 (Table 8 No. 3)): 1 µg/mL (≈ 2.42 µM) | MIC (S. epidermidis MSSE; strain S. ep MSSE153 (Table 8 No. 1)): 2 µg/mL (≈ 4.85 µM)

CC(=O)NC[C@H]1CN(c2ccc(N3CCN(c4ccccc4)CC3)c(F)c2)C(=O)O1 [Example 1, (S)—[N-3-(3′-fluoro-4′-(4″-phenylpiperazinyl))phenyl-2-oxo-5-oxazolidinyl]methyl acetamide]
Result ([3]; solvent 0.1N Hydrochloric acid): Dissolved | Result ([3]; solvent 0.1N Sodium hydroxide): Insoluble | Result ([3]; solvent Acetonitrile): Dissolved | Result ([3]; solvent Ethanol): Dissolved | Result ([3]; solvent Methanol): Dissolved | Result ([3]; solvent Water, listed as Anhydride): Insoluble
